Measured values: patent publication US6660501B2, “Production of proteins by cell culture” (Lonza Group, AG, priority 1986, dated 2003)

Tested on: NT1/19 cells
Experiment: Effect of varying alkanoates on antibody production from hybridoma cells
Type: cell-based
Conditions: for AVERAGE DATA FROM EXP. #1 & #2: average of relative productivity, control 100.00; for PRODUCTIVITY EXP. #1: control 3.30; for PRODUCTIVITY EXP #2: control 2.39
Description: The IgM secreting mouse hybridoma cell line NB1/19 was grown in suspension culture in Dulbeccos Modified Eagles Minimum (DMEM) serum-free medium containing albumin, insulin, transferrin, gentamycin and other additives as required to cultivate cells in suspension culture. The NB1/19 cell line produces a mouse monoclonal antibody having specificity for an antigenic determinant of human B-type blood cells. The preparation of this call line is described in detail in the specification of British Patent GB 2097425B. It will be appreciated, however, that other hybridoma cell lines may be used in place of this particular cell line as appropriate in this and other examples.
The cells were grown to a viable cell density of 1.0-1.5×10^6 cells/ml. Viable cell density was determined by counting the number of cells which exclude trypan blue, a staining agent. A sample of the suspension culture was diluted in a serum-free medium to a density of about 1.3×10^5 cells/ml. Aliquots of 50 ml in volume were dispensed into shake flasks and sodium butyrate added at concentrations of 0.1 mM, 0.3 mM, 0.5 mM and 1.0 mM.
The shake flasks were gassed with 5% CO2-95% air, and sealed and incubated with shaking at 37° C. for up to 207 hours. (Table 1). Samples ([…]) were removed from the culture by pipette. 100 μl was used to determine viable cell count and the reminder centrifuged at 300×g for five minutes. Supernatants were stored at −20° C. prior to antibody determination by enzyme linked immunosorbent assay (ELISA).
NT1/19 cells were cultured as in Example 1. Varying straight chain sodium alkanoate salts (propionate, butyrate, bentanoate or hexanoate) were added to the inoculum at the concentrations indicated in Table 5.

SMILES	RELATIVE PRODUCTIVITY EXP. #1 (0.50 mM alkanoate)	AVERAGE DATA FROM EXP. #1 & #2 (0.50 mM alkanoate)	PRODUCTIVITY EXP. #1 (0.50 mM alkanoate)	RELATIVE PRODUCTIVITY EXP. #1 (1.00 mM alkanoate)	RELATIVE PRODUCTIVITY EXP. #2 (1.00 mM alkanoate)	AVERAGE DATA FROM EXP. #1 & #2 (1.00 mM alkanoate)	PRODUCTIVITY EXP #2 (1.00 mM alkanoate)	PRODUCTIVITY EXP. #1 (1.00 mM alkanoate)
CCCCC(=O)[O-].[Na+] [PENANOATE, bentanoate]	163.6 % of control	163.64	5.40 ug antibody per 10^5 cells	206.1 % of control	230.1 % of control	218.09	5.50 ug antibody per 10^5 cells	6.80 ug antibody per 10^5 cells
CCC(=O)O [PROPIONATE, propionate]		172.73	5.70 ug antibody per 10^5 cells			210.07	4.95 ug antibody per 10^5 cells	7.03 ug antibody per 10^5 cells
